Earlier results on 62 compounds are cited in the CATMoS acute toxicity set (Mansouri et al. 2021).

The structures appear in SMILES notation. Values joined by “and” are separate entries in the source; they are usually repeats but may differ in a detail not shown here. Identical values can stand only once.

The nature of the data set: rat acute oral toxicity. Conditions: in vivo.
As a reminder, the LD50 is the dose at which mortality reaches 50%. As to `CCCC=C(C=NCCCCCCCCCCCCCCCCCCCCC)CC`, the LD50 was 5320 mg/kg.

Turning to `CC[N+]1(CCOC(=O)C(O)(c2ccccc2)c2ccccc2)CCCCC1`, the LD50 is 4600 mg/kg.

For `COc1ccc2cc(C(C)C(=O)OCCO)ccc2c1` (configuration not stated), the LD50 was 1720 mg/kg.

`C=C(C)CC#N`: the 50% lethal dose (LD50) was 540 mg/kg.

Take `CCCCCCCCc1ccccc1O`: the LD50 is 2800 mg/kg.

Take `COC(=O)c1cccc(CCN(C)Cc2ccccc2)c1`: the LD50 is 700 mg/kg.

Consider `COc1cc(Cc2cnc(N)nc2N)cc(OC)c1Br`, for which the LD50 was 2510 mg/kg.

Turning to `COP(=S)(OC)Oc1ccc([N+](=O)[O-])c(SC(C)C)c1`, the LD50 was 1140 mg/kg.

In the case of `COP(=S)(OC)Oc1cc(C)n(C)c(=O)c1`, the LD50 was 0.812 mg/kg.

In the case of `CCN(CC)Cc1cc(-c2ccccc2)ccc1O`, the 50% lethal dose (LD50) was 28 mg/kg.

For `CCCCC(C)(C)[C@H](O)C=C[C@H]1[C@H](O)CC(=O)[C@@H]1CCCCC=CC(=O)OC`, the LD50 was 56.5 mg/kg.

For `CNC(=O)ON=C1CS(=O)CCS1` (configuration not stated), the LD50 was 12.3 mg/kg.

For `Cc1ccc(O)c(-n2nc3ccccc3n2)c1`, the LD50 was 10000 mg/kg.

For `CC(C)(C(=O)c1cccnc1)c1cccnc1`, the LD50 was 521 mg/kg.

Turning to `C=C(C)C(=O)OCC(C)C`, the LD50 is 9590 mg/kg.

In the case of `O=C(O)c1ccccc1C(=O)c1ccccc1`, the LD50 is 4600 mg/kg.

With `CC(C)Cc1ccc(C(C)C(=O)OCc2ccccn2)cc1` (configuration not stated), the LD50 was 1440 mg/kg.

Consider `CN(C)c1ccc(N=Nc2cccc(Br)c2)cc1`, for which the LD50 is 13000 mg/kg.

Consider `Nc1c(Cl)cc(C(=O)NC2CC2)cc1Cl`, for which the LD50 was 170 mg/kg.

In the case of `S=C=NCCN=C=S`, the LD50 is 112 mg/kg.

As for `CC(C)(N)Cc1ccccc1`, the LD50 is 188 mg/kg.

On to `Clc1cccc(C(Cl)(Cl)Cl)n1`, for which the LD50 is 940 mg/kg.

Regarding `O=C(O)COc1ccc(Cl)cc1Cl`, the LD50 is 405 mg/kg and 850 mg/kg.

As to `O=[N+]([O-])c1ccc([C@@H](O)[C@@H]2COC(C(Cl)Cl)=N2)cc1`, the LD50 was 6000 mg/kg.

As for `CC(C)=CCC(CCN1CCOCC1)(C(N)=O)c1cccc2ccccc12` (configuration not stated), the LD50 is 177 mg/kg.

Take `COc1cc(OC)cc(OCCO)c1`: the LD50 is 4050 mg/kg.

As for `CCN(CC)CCNc1c2ccccc2nc2cccc([N+](=O)[O-])c12`, the LD50 is 42.2 mg/kg.

Take `C=COCC(C)CCCC(C)CC(C)C` (configuration not stated): the LD50 is 1220 mg/kg.

`BrC/C=C/CBr`: the LD50 was 62 mg/kg.

In the case of `C=CC(=O)OCC(C)O` (configuration not stated), the LD50 is 250 mg/kg.

Regarding `c1ccc(C2CN3CCSC3=N2)cc1` (configuration not stated), the LD50 is 180 mg/kg and 480 mg/kg.

For `CCC1NC(=O)c2ccccc2O1` (configuration not stated), the LD50 was 1310 mg/kg.

For the compound `Clc1cncc(N2CCNCC2)n1`, the LD50 is 79.6 mg/kg.

Take `O=C(O)Cc1c(-c2ccccc2)c(-c2ccccc2)nn1-c1ccccc1`: the LD50 is 13 mg/kg.

For `COCCOC(=O)C1=C(C)NC(C)=C(C(=O)OC(C)C)C1c1cccc([N+](=O)[O-])c1` (configuration not stated), the LD50 was 2740 mg/kg.

As for `C=CCC1(CCSCCCC)C(=O)N=C(S)NC1=O` (configuration not stated), the LD50 is 1450 mg/kg.

With `O=P(OCCCl)(OCCCl)OCC(CO)(CO)COP(=O)(OCCCl)OCCCl`, the LD50 was 4920 mg/kg.

Turning to `O=C(O)c1cc(O)nc(O)n1`, the LD50 was 10900 mg/kg.

Regarding `COC(COC(N)=O)C1=C(N2CC2)C(=O)C(C)=C(N2CC2)C1=O` (configuration not stated), the LD50 is 27.3 mg/kg.

Take `CCCCCCCCOC(C[n+]1ccccc1)c1ccc(C2CCCCC2)cc1` (configuration not stated): the LD50 was 250 mg/kg.

As for `CNC(=O)Oc1ccccc1C(C)C`, the LD50 is 450 mg/kg.

In the case of `Cc1ccc(S(=O)(=O)OCCCl)cc1`, the LD50 was 498 mg/kg.

Take `CCC(OC(N)=O)c1ccccc1Cl` (configuration not stated): the LD50 was 710 mg/kg.

Turning to `CCCC=C(CC)[N+](=O)[O-]`, the LD50 is 620 mg/kg.

In the case of `CCCCC(CC)CN1C(=O)C2C3C=CC(C3)C2C1=O` (configuration not stated), the LD50 was 2800 mg/kg.

Regarding `CCC/C=C/CO`, the LD50 was 3500 mg/kg.

As to `CCCCCCCCCCCCN=C([O-])C[N+](C)(C)Cc1ccccc1`, the LD50 was 100 mg/kg.

As for `Cc1cc(=S)c(N)n[nH]1`, the LD50 is 1980 mg/kg.

As to `FC(F)OC(F)(F)C(F)Cl` (configuration not stated), the LD50 was 5450 mg/kg.

For the compound `CC(C)NC(=O)N1CC(=O)N(c2cc(Cl)cc(Cl)c2)C1=O`, the LD50 is 3500 mg/kg.

With `CN1CCN(CCCN2c3ccccc3Sc3ccc(C(F)(F)F)cc32)CC1`, the LD50 is 543 mg/kg.

For `CNCC1CCCCC1`, the LD50 is 1410 mg/kg.

In the case of `OC1CC2CC1C1CC=CC21` (configuration not stated), the LD50 was 3200 mg/kg.

Take `CS(=O)(=O)OCCCN(CCCOS(C)(=O)=O)C1CCCCC1`: the LD50 was 375 mg/kg.

Take `CCC1OC(C)C(=NOC(=O)NC)S1` (configuration not stated): the LD50 is 8 mg/kg.

With `COc1cc(OC)n2nc(N)nc2n1`, the LD50 is 1030 mg/kg.

Consider `OC1CCc2ccccc21` (configuration not stated), for which the LD50 is 620 mg/kg.

Turning to `CCCCC(CC)COC(=O)C(CC)CCCC` (configuration not stated), the LD50 was 27000 mg/kg.

For the compound `C=CC(OC(C)=O)OC(C)=O`, the LD50 is 35 mg/kg.

Consider `CCCN=C(NCCC)C(OCC)c1ccccc1` (configuration not stated), for which the LD50 was 95 mg/kg.

With `Clc1ccc(-c2cccc(Cl)c2Cl)c(Cl)c1`, the LD50 is 4250 mg/kg.

Consider `O=C(O)C(S)C(S)C(=O)O` (configuration not stated), for which the LD50 is 4000 mg/kg.
